Assay results from patent publication US20260130395A1, “Water Dispersible Botanical Compositions” (Aquila Black Limited, priority 2021, published 2026).

Test: Stability of cannabinoid compounds and Vitamin E components in Beverage 1 (AB White) by LCMSMS
Assay type: physicochemical
Details: for Stability of Plant-Derived Cannabinoid Compounds in AB White, 8° C.: AB White stored at 8° C.; for Stability of Plant-Derived Cannabinoid Compounds in AB White, 21-25° C.: AB White stored at 21-25° C.

SMILES: CCCCCc1cc(O)c2c(c1)OC1(C)CCC3C1C2C3(C)C (stereo not drawn) [CBL, cannabicyclol]
- Stability of Plant-Derived Cannabinoid Compounds in AB White, 8° C. (0 days): 0.550 µg/mL
- Stability of Plant-Derived Cannabinoid Compounds in AB White, 8° C. (1 days): 0.541 µg/mL
- Stability of Plant-Derived Cannabinoid Compounds in AB White, 8° C. (2 days): 0.542 µg/mL
- Stability of Plant-Derived Cannabinoid Compounds in AB White, 8° C. (3 days): 0.553 µg/mL
- Stability of Plant-Derived Cannabinoid Compounds in AB White, 8° C. (5 days): 0.552 µg/mL
- Stability of Plant-Derived Cannabinoid Compounds in AB White, 8° C. (8 days): 0.537 µg/mL
- Stability of Plant-Derived Cannabinoid Compounds in AB White, 8° C. (9 days): 0.535 µg/mL
- Stability of Plant-Derived Cannabinoid Compounds in AB White, 8° C. (10 days): 0.544 µg/mL
- Stability of Plant-Derived Cannabinoid Compounds in AB White, 8° C. (11 days): 0.544 µg/mL
- Stability of Plant-Derived Cannabinoid Compounds in AB White, 8° C. (12 days): 0.553 µg/mL
- Stability of Plant-Derived Cannabinoid Compounds in AB White, 8° C. (15 days): 0.534 µg/mL
- Stability of Plant-Derived Cannabinoid Compounds in AB White, 8° C. (16 days): 0.546 µg/mL
- Stability of Plant-Derived Cannabinoid Compounds in AB White, 8° C. (17 days): 0.540 µg/mL
- Stability of Plant-Derived Cannabinoid Compounds in AB White, 8° C. (18 days): 0.536 µg/mL
- Stability of Plant-Derived Cannabinoid Compounds in AB White, 8° C. (19 days): 0.537 µg/mL
- Stability of Plant-Derived Cannabinoid Compounds in AB White, 8° C. (22 days): 0.555 µg/mL
- Stability of Plant-Derived Cannabinoid Compounds in AB White, 8° C. (23 days): 0.545 µg/mL
- Stability of Plant-Derived Cannabinoid Compounds in AB White, 8° C. (24 days): 0.548 µg/mL
- Stability of Plant-Derived Cannabinoid Compounds in AB White, 8° C. (25 days): 0.540 µg/mL
- Stability of Plant-Derived Cannabinoid Compounds in AB White, 8° C. (26 days): 0.534 µg/mL
- Stability of Plant-Derived Cannabinoid Compounds in AB White, 8° C. (29 days): 0.547 µg/mL
- Stability of Plant-Derived Cannabinoid Compounds in AB White, 8° C. (30 days): 0.544 µg/mL
- Stability of Plant-Derived Cannabinoid Compounds in AB White, 8° C. (60 days): 0.543 µg/mL
- Stability of Plant-Derived Cannabinoid Compounds in AB White, 8° C. (90 days): 0.527 µg/mL
- Stability of Plant-Derived Cannabinoid Compounds in AB White, 8° C. (120 days): 0.534 µg/mL
- Stability of Plant-Derived Cannabinoid Compounds in AB White, 8° C. (150 days): 0.540 µg/mL
- Stability of Plant-Derived Cannabinoid Compounds in AB White, 8° C. (180 days): 0.542 µg/mL
- Stability of Plant-Derived Cannabinoid Compounds in AB White, 8° C. (210 days): 0.534 µg/mL
- Stability of Plant-Derived Cannabinoid Compounds in AB White, 8° C. (240 days): 0.535 µg/mL
- Stability of Plant-Derived Cannabinoid Compounds in AB White, 8° C. (270 days): 0.539 µg/mL
- Stability of Plant-Derived Cannabinoid Compounds in AB White, 8° C. (300 days): 0.526 µg/mL
- Stability of Plant-Derived Cannabinoid Compounds in AB White, 8° C. (330 days): 0.543 µg/mL
- Stability of Plant-Derived Cannabinoid Compounds in AB White, 8° C. (360 days): 0.533 µg/mL
- Stability of Plant-Derived Cannabinoid Compounds in AB White, 8° C. (390 days): 0.535 µg/mL
- Stability of Plant-Derived Cannabinoid Compounds in AB White, 8° C. (420 days): 0.526 µg/mL
- Stability of Plant-Derived Cannabinoid Compounds in AB White, 8° C. (450 days): 0.532 µg/mL
- Stability of Plant-Derived Cannabinoid Compounds in AB White, 8° C. (480 days): 0.521 µg/mL
- Stability of Plant-Derived Cannabinoid Compounds in AB White, 8° C. (510 days): 0.514 µg/mL
- Stability of Plant-Derived Cannabinoid Compounds in AB White, 8° C. (540 days): 0.514 µg/mL
- Stability of Plant-Derived Cannabinoid Compounds in AB White, 8° C. (570 days): 0.503 µg/mL
- Stability of Plant-Derived Cannabinoid Compounds in AB White, 21-25° C. (0 days): 0.550 µg/mL
- Stability of Plant-Derived Cannabinoid Compounds in AB White, 21-25° C. (1 days): 0.539 µg/mL
- Stability of Plant-Derived Cannabinoid Compounds in AB White, 21-25° C. (2 days): 0.540 µg/mL
- Stability of Plant-Derived Cannabinoid Compounds in AB White, 21-25° C. (3 days): 0.543 µg/mL
- Stability of Plant-Derived Cannabinoid Compounds in AB White, 21-25° C. (5 days): 0.530 µg/mL
- Stability of Plant-Derived Cannabinoid Compounds in AB White, 21-25° C. (8 days): 0.542 µg/mL
- Stability of Plant-Derived Cannabinoid Compounds in AB White, 21-25° C. (9 days): 0.535 µg/mL
- Stability of Plant-Derived Cannabinoid Compounds in AB White, 21-25° C. (10 days): 0.546 µg/mL
- Stability of Plant-Derived Cannabinoid Compounds in AB White, 21-25° C. (11 days): 0.552 µg/mL
- Stability of Plant-Derived Cannabinoid Compounds in AB White, 21-25° C. (12 days): 0.529 µg/mL
- Stability of Plant-Derived Cannabinoid Compounds in AB White, 21-25° C. (15 days): 0.548 µg/mL
- Stability of Plant-Derived Cannabinoid Compounds in AB White, 21-25° C. (16 days): 0.537 µg/mL
- Stability of Plant-Derived Cannabinoid Compounds in AB White, 21-25° C. (17 days): 0.554 µg/mL
- Stability of Plant-Derived Cannabinoid Compounds in AB White, 21-25° C. (18 days): 0.554 µg/mL
- Stability of Plant-Derived Cannabinoid Compounds in AB White, 21-25° C. (19 days): 0.552 µg/mL
- Stability of Plant-Derived Cannabinoid Compounds in AB White, 21-25° C. (22 days): 0.547 µg/mL
- Stability of Plant-Derived Cannabinoid Compounds in AB White, 21-25° C. (23 days): 0.530 µg/mL
- Stability of Plant-Derived Cannabinoid Compounds in AB White, 21-25° C. (24 days): 0.546 µg/mL
- Stability of Plant-Derived Cannabinoid Compounds in AB White, 21-25° C. (25 days): 0.532 µg/mL
- Stability of Plant-Derived Cannabinoid Compounds in AB White, 21-25° C. (26 days): 0.549 µg/mL
